Experimental data taken from patent US7229762B2, “Proteomic screening for redox state dependent protein—protein interactions” (Duke University Medical Center, priority 2003, dated 2007).

Columns and labels:
[1] = target: T1, caspase-3 interaction with iNOS / ASM (Homo sapiens, UniProt P42574); test: Modified yeast two-hybrid, NO-dependent growth of iNOS/caspase-3 and ASM/caspase-3 clones; type: cell-based; details: iNOS/caspase-3 clone, presence vs absence of NO
T1 construct: expressed in transfected cells; host or cells: Saccharomyces cerevisiae CG-1945 Δyhb1
T1 sequence (P42574 1-277): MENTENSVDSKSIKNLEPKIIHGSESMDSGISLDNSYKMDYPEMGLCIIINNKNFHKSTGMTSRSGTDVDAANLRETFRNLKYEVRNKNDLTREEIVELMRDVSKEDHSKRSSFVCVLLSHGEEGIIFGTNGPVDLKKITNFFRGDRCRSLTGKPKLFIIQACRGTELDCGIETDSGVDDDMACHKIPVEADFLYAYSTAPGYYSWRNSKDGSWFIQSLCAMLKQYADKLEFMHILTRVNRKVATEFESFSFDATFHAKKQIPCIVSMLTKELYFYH
Description: Yeast (Δyhb1) were transformed with Gal4 BD-caspase-3 plasmid (bait) and a cDNA library (Gal4 AD prey plasmids) derived from activated (NO generating) macrophages. Screening was performed as described in the methods below. DETA-NO at less than 300 μM generates NO without inhibiting yeast growth (monitored by absorbance at 600 nm). Steady state NO concentrations are maintained at ˜100 nM–1 μM range for several days as measured with an NO electrode (not shown).
Auxotrophic selection was carried out on agar plates (15 cm in diameter) enriched in 50 mM phosphate buffer (pH 7.2; His-Trp-Leu (triple)-deficient buffered medium (TDBM)). […] Prey plasmids were isolated from positive yeast clones and then re-introduced into the bait strain to confirm bait-prey interactions. Method 2: After cells were seeded on 1.5% agar they were covered with 3% low melting point agar, which in turn was layered with culture medium. NO donors (e.g. DETA-NO; 300 μM final concentration) were added to the liquid layer every 24 hours. Colonies are grown for 4 days as described in ref 9. Method 3:
Auxotrophic selection was carried out in TDBM. Transformation with the cDNA library was followed by overnight growth in medium deficient in tryptophan and leucine. Transformants were then grown for 3 days in His-deficient medium supplemented with DETA-NO (typically 200 μM final concentration). […]

AIF/MIP-1α interaction = target: T2, AIF/MIP-1α interaction (UniProt O95831+P10855); test: Modified yeast two-hybrid, NO-dependent growth of AIF/MIP-1α clone; type: cell-based; details: 200 μM DETA-NO, 72 hrs
T2 construct: The entire open reading frame of AIF was derived from I.M.A.G.E. clones 1520292 and 25192; expressed in transfected cells; host or cells: Saccharomyces cerevisiae Δyhb1
T2 sequence (O95831 102-613): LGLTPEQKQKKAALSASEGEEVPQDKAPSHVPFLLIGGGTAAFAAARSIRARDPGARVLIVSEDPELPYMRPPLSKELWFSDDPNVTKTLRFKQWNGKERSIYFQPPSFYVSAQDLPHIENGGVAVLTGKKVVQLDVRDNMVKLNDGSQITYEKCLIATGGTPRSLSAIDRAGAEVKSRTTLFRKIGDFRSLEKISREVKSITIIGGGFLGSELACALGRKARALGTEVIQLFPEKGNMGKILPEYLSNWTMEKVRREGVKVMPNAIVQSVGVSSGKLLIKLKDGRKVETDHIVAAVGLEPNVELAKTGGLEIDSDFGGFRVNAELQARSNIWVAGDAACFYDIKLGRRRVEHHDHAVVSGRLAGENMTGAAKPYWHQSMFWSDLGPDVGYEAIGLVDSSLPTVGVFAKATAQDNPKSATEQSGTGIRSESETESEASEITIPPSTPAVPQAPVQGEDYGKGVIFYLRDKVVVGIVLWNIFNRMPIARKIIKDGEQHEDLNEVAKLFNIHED
T2 sequence (P10855 24-92): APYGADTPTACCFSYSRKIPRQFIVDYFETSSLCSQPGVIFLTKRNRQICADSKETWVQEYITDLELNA
Description: Yeast (Δyhb1) were transformed with Gal4 BD-AIF (Bait) and Gal4 AD-MIP-1α (Prey). (A) Robust growth of the AIF/MIP-1α clone requires NO (single asterisk, P<0.001 versus AIF/MIP-1α without NO) (n=6). […] Cells were grown in His-Trp-Leu-deficient medium at 30° C. for 72 hrs with or without 200 μM DETA-NO. (B) β-galactosidase activities in samples shown in A (single asterisk, P<0.001 vs. without NO, n=4).
To extend the generality of our findings, 2.5 million transformants were screened from our macrophage cDNA library for NO-dependent interactions, using apoptosis-inducing factor (AIF) as bait. AIF is implicated in cell death that is independent of caspase-3, and is not known to be regulated by NO (Lipton et al., 2002). […] One of these clones contained the entire cDNA sequence of the chemokine, macrophage inflammatory protein-1 alpha (MIP-1α). Since this clone contained a few extra amino acids derived from a linker sequence, the full length MIP-1α coding sequence was amplified by PCR and cloned into the pGAD 10 vector, whose NO-dependent interaction with AIF was verified.

ASM = target: T3, ASM (Homo sapiens, UniProt P17405); test: ASM activity assay of purified ASM (BODIPY FL C5-sphingomyelin); type: biochemical; details: DETA-NO 50 μM–200 μM, 30 or 60 min, pH 5.0
T3 sequence (P17405 47-631): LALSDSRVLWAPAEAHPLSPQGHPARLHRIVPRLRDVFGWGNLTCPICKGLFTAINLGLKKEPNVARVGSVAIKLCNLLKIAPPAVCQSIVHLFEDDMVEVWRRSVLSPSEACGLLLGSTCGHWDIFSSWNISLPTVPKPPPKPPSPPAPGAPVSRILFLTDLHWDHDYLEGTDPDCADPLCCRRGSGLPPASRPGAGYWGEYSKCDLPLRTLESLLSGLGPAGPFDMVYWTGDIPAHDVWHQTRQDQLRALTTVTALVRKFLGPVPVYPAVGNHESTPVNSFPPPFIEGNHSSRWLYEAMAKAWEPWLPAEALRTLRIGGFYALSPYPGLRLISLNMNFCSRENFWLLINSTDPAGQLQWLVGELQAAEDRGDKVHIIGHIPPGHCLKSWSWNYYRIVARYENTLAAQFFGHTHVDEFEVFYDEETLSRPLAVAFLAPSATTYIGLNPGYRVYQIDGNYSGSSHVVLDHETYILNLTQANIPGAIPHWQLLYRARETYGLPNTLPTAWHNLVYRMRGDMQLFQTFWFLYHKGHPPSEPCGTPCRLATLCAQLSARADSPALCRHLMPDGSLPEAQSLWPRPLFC
Description: (§1) ASM activity was measured essentially as described (E. Romiti et al., 2000), using BODIPY FL C5-sphingomyelin substrate (1.5 nmol) in assay buffer: 250 mM sodium acetate, pH 5.0, 10 mM EDTA. To assay Zn-stimulated ASM activity, 0.1 mM ZnCl was used instead of 10 mM EDTA. 30 μl sample was incubated with 70 μl assay buffer at 37° C. for 1–3 hours. Reactions were terminated by adding 1.0 ml heptane and 0.29 ml isopropyl alcohol. Phases were separated by adding 0.23 ml H2O. The heptane phase was washed with 0.23 ml H2O. The fluorescence of the organic phase (containing BODIPY FL-ceramide) was assayed at 505/514 nm excitation/emission wavelengths (slit width=2.5).
Purified ASM protein (3.4 μg) was treated with DETA-NO (50 μM–200 μM for 30 or 60 min) and ASM activity was measured at pH 5.0 (n=3).

[2] = target: T4, caspase-3/ASM interaction (Homo sapiens, UniProt P42574); test: In vitro ASM/caspase-3 co-precipitation, ASM activity in caspase-3 IPs; type: binding; details: 20 μM DETA-NO 60 min, then ASM 37° C. 2 hrs
T4 sequence (P42574 29-277): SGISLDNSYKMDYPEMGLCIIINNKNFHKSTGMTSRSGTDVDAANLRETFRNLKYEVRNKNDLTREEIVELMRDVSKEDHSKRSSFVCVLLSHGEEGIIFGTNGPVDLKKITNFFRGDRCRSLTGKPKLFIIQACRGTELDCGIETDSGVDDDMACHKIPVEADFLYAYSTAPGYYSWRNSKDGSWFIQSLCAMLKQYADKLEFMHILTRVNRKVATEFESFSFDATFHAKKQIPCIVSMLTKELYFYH
T4 sequence (P17405 47-631 partner): T3 sequence (P17405 47-631)
Description: as §1, with “width=2.5). […]” for “width=2.5).”
Purified caspase-3 was incubated in the presence or absence 20 μM DETA-NO for 60 min (30 nM steady state NO), followed by incubation with ASM at 37° C. for 2 hrs, and IP with caspase-3 antibody. […] The interaction of caspase-3 with ASM was measured as ASM activity in caspase-3 IP's (pH 5.0). […]
To determine the relevant target(s) of NO, ASM/caspase-3 co-precipitations were carried out following NO treatment of each partner alone. Using an ASM activity assay, the amounts of ASM that could be precipitated with a procaspase-3 antibody was assessed from co-incubates (2 hours at 37° C.) of ASM (20 pmol) and caspase-3 in limiting amounts (2.5 pmol). […]

[N]=O [NO, nitric oxide]
NO-dependent growth of iNOS transformant [1]: ~9 fold | increase in growth in the presence of NO (AIF/MIP-1α interaction): 8 fold | effect on ASM activity (ASM): no direct effect on ASM activity | binding of ASM to caspase-3 pretreated with NO [2]: induces binding of ASM
